Laboratory results published in PubChem BioAssay (NCI).
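GI50 = concentration required for 50% inhibition of growth. The concentration for full growth arrest is given as TGI.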

Columns and labels:
Test in all cases: inhibition of tumour cell growth, NCI panel, 384-well format
SN12C renal = test system: SN12C renal
SK-MEL-5 melanoma = test system: SK-MEL-5 melanoma
SK-OV-3 ovarian = test system: SK-OV-3 ovarian
CCRF-CEM leukemia = test system: CCRF-CEM leukemia
KM12 colon = test system: KM12 colon
NCI-H23 lung = test system: NCI-H23 lung
SNB-75 CNS = test system: SNB-75 CNS
IGROV1 ovarian = test system: IGROV1 ovarian
OVCAR-8 ovarian = test system: OVCAR-8 ovarian
SF-295 CNS = test system: SF-295 CNS
UACC-257 melanoma = test system: UACC-257 melanoma
NCI/ADR-RES ovarian = test system: NCI/ADR-RES ovarian
MDA-MB-231 breast = test system: MDA-MB-231 breast
T-47D breast = test system: T-47D breast
RPMI-8226 leukemia = test system: RPMI-8226 leukemia
HOP-92 NSCLC = test system: HOP-92 NSCLC
MDA-MB-468 breast = test system: MDA-MB-468 breast
HCC-2998 colon = test system: HCC-2998 colon
HCT-116 colon = test system: HCT-116 colon
TK-10 renal = test system: TK-10 renal
SW-620 colon = test system: SW-620 colon
LOX IMVI melanoma = test system: LOX IMVI melanoma
OVCAR-4 ovarian = test system: OVCAR-4 ovarian
PC-3 prostate = test system: PC-3 prostate
SNB-19 CNS = test system: SNB-19 CNS
K-562 leukemia = test system: K-562 leukemia
MALME-3M melanoma = test system: MALME-3M melanoma
UO-31 renal = test system: UO-31 renal
HS 578T breast = test system: HS 578T breast
COLO 205 colon = test system: COLO 205 colon
SK-MEL-28 melanoma = test system: SK-MEL-28 melanoma
HL-60(TB) leukemia = test system: HL-60(TB) leukemia
A498 renal = test system: A498 renal
HOP-62 NSCLC = test system: HOP-62 NSCLC
NCI-H322M lung = test system: NCI-H322M lung
MCF7 breast = test system: MCF7 breast
HT29 colon = test system: HT29 colon
M14 melanoma = test system: M14 melanoma
SF-268 CNS = test system: SF-268 CNS
UACC-62 melanoma = test system: UACC-62 melanoma
EKVX NSCLC = test system: EKVX NSCLC
CAKI-1 renal = test system: CAKI-1 renal
OVCAR-5 ovarian = test system: OVCAR-5 ovarian
786-0 renal = test system: 786-0 renal
RXF 393 renal = test system: RXF 393 renal
BT-549 breast = test system: BT-549 breast
SF-539 CNS = test system: SF-539 CNS
NCI-H460 NSCLC = test system: NCI-H460 NSCLC
NCI-H226 lung = test system: NCI-H226 lung
NCI-H522 lung = test system: NCI-H522 lung
OVCAR-3 ovarian = test system: OVCAR-3 ovarian
A549 NSCLC = test system: A549 NSCLC
DU-145 prostate = test system: DU-145 prostate
HCT-15 colon = test system: HCT-15 colon
MOLT-4 leukemia = test system: MOLT-4 leukemia
ACHN renal = test system: ACHN renal
MDA-MB-435 melanoma = test system: MDA-MB-435 melanoma
U251 glioblastoma = test system: U251 glioblastoma

O=C(Nc1cc(Oc2cc(F)c(NC(=O)C3(C(=O)Nc4ccc(F)cc4)CC3)cc2F)ccn1)C1CC1
GI50 (SN12C renal): 1650 nM | TGI (SN12C renal): 4500 nM | GI50 (SK-MEL-5 melanoma): 512 nM | TGI (SK-MEL-5 melanoma): 1940 nM | GI50 (SK-OV-3 ovarian): 3120 nM | TGI (SK-OV-3 ovarian): 9200 nM | GI50 (CCRF-CEM leukemia): 445 nM | TGI (CCRF-CEM leukemia): 1470 nM | TGI (KM12 colon): 2720 nM | GI50 (NCI-H23 lung): 173 nM | TGI (NCI-H23 lung): 578 nM | GI50 (SNB-75 CNS): 1620 nM | TGI (SNB-75 CNS): 3030 nM | GI50 (IGROV1 ovarian): 1260 nM | TGI (IGROV1 ovarian): 6930 nM | GI50 (OVCAR-8 ovarian): 1950 nM | TGI (OVCAR-8 ovarian): 9880 nM | GI50 (SF-295 CNS): 1200 nM | TGI (SF-295 CNS): 5140 nM | GI50 (UACC-257 melanoma): 1110 nM | TGI (UACC-257 melanoma): 2680 nM | GI50 (NCI/ADR-RES ovarian): 1780 nM | TGI (NCI/ADR-RES ovarian): 6990 nM | GI50 (MDA-MB-231 breast): 472 nM | TGI (MDA-MB-231 breast): 91700 nM | GI50 (T-47D breast): 1380 nM | TGI (T-47D breast): 5170 nM | GI50 (RPMI-8226 leukemia): 1930 nM | TGI (RPMI-8226 leukemia): 3370 nM | GI50 (HOP-92 NSCLC): 2340 nM | TGI (HOP-92 NSCLC): > 100000 nM | GI50 (MDA-MB-468 breast): 1980 nM | TGI (MDA-MB-468 breast): 3500 nM | GI50 (HCC-2998 colon): 647 nM | TGI (HCC-2998 colon): 4230 nM | GI50 (HCT-116 colon): 801 nM | TGI (HCT-116 colon): 54900 nM | GI50 (TK-10 renal): 3130 nM | TGI (TK-10 renal): 20800 nM | GI50 (SW-620 colon): 2380 nM | TGI (SW-620 colon): 6960 nM | GI50 (LOX IMVI melanoma): 1250 nM | TGI (LOX IMVI melanoma): 2710 nM | GI50 (OVCAR-4 ovarian): 3980 nM | TGI (OVCAR-4 ovarian): 8260 nM | GI50 (PC-3 prostate): 3300 nM | TGI (PC-3 prostate): 8130 nM | GI50 (SNB-19 CNS): 2750 nM | TGI (SNB-19 CNS): 11400 nM | GI50 (K-562 leukemia): 320 nM | TGI (K-562 leukemia): 13900 nM | GI50 (MALME-3M melanoma): 249 nM | TGI (MALME-3M melanoma): 1100 nM | GI50 (UO-31 renal): 2070 nM | TGI (UO-31 renal): 7070 nM | GI50 (HS 578T breast): 1350 nM | TGI (HS 578T breast): 2710 nM | GI50 (COLO 205 colon): 660 nM | TGI (COLO 205 colon): 2870 nM | GI50 (SK-MEL-28 melanoma): 1400 nM | TGI (SK-MEL-28 melanoma): 2780 nM | GI50 (HL-60(TB) leukemia): 1150 nM | TGI (HL-60(TB) leukemia): 2380 nM | GI50 (A498 renal): 3020 nM | TGI (A498 renal): 8190 nM | GI50 (HOP-62 NSCLC): 306 nM | TGI (HOP-62 NSCLC): 1620 nM | GI50 (NCI-H322M lung): 1600 nM | TGI (NCI-H322M lung): 6880 nM | GI50 (MCF7 breast): 376 nM | TGI (MCF7 breast): 2090 nM | GI50 (HT29 colon): 659 nM | TGI (HT29 colon): 39000 nM | GI50 (M14 melanoma): 349 nM | TGI (M14 melanoma): 1430 nM | GI50 (SF-268 CNS): 364 nM | TGI (SF-268 CNS): 962 nM | GI50 (UACC-62 melanoma): 394 nM | TGI (UACC-62 melanoma): 1600 nM | GI50 (EKVX NSCLC): 1730 nM | TGI (EKVX NSCLC): 4380 nM | GI50 (CAKI-1 renal): 1510 nM | TGI (CAKI-1 renal): 3280 nM | GI50 (OVCAR-5 ovarian): 2350 nM | TGI (OVCAR-5 ovarian): 14800 nM | GI50 ([…]-0 renal): 2000 nM | TGI (786-0 renal): 8410 nM | GI50 (RXF 393 renal): 1200 nM | TGI (RXF 393 renal): 2510 nM | GI50 (BT-549 breast): 2370 nM | TGI (BT-549 breast): 4710 nM | GI50 (SF-539 CNS): 1460 nM | TGI (SF-539 CNS): 2930 nM | GI50 (NCI-H460 NSCLC): 1980 nM | TGI (NCI-H460 NSCLC): 4310 nM | GI50 (NCI-H226 lung): 2210 nM | TGI (NCI-H226 lung): 7210 nM | GI50 (NCI-H522 lung): 2060 nM | TGI (NCI-H522 lung): 4170 nM | GI50 (OVCAR-3 ovarian): 2350 nM | TGI (OVCAR-3 ovarian): 6000 nM | GI50 (A549 NSCLC): 1700 nM | TGI (A549 NSCLC): 8940 nM | GI50 (DU-145 prostate): 1070 nM | TGI (DU-145 prostate): 61400 nM | GI50 (HCT-15 colon): 1930 nM | TGI (HCT-15 colon): 5650 nM | GI50 (MOLT-4 leukemia): 624 nM | TGI (MOLT-4 leukemia): 1920 nM | GI50 (ACHN renal): 1660 nM | TGI (ACHN renal): 7310 nM | GI50 (MDA-MB-435 melanoma): 1200 nM | TGI (MDA-MB-435 melanoma): 2820 nM | GI50 (U251 glioblastoma): 2500 nM | TGI (U251 glioblastoma): 6320 nM
